The source of these data is US12133836B2, “Reduction of adipose tissue” (10XBIO, LLC, priority 2015, dated 2024).

The subject of one data set is fat tissue. The data set can be described thus: Co-solvent injected with polidocanol (tolerability, uniformity of fat necrosis). The class given is in vivo. The settings on record: as co-solvent.
The test system of the next data set is skin tissue. In words: Skin adverse events (skin necrosis) after subcutaneous injection into the inguinal fat pad. The class given is in vivo, LVG Syrian Golden Hamsters. From the text:
(§1) Model: The inguinal fat pads were used as a model tissue. In the golden hamster, these subcutaneous fat pads lying bilaterally in the inguinal region were continuous with fat pads located laterally on each respective flank, and thus were referenced here as inguinal-lateral fat pads or ILFPs. The length of each fat pad offered the opportunity for two injections spaced approximately […] within each fat pad, and similarly placed control injections in the contralateral fat pad of the same animal. The unilateral experimental treatment in this model offered the advantage of paired comparison of treated and non-treated fat pads within individual animals, and served as a model to assess lipolytic effects of test compounds.
(§2) Test Articles: Polidocanol: Solutions provided by Advantar (or other), 0.5%, 1.25%, and 2.0%, formulated with propylene glycol.
(§3) Treatment: Under isoflurane anesthesia, the right ILFP was injected with 0.2 cc of drug solution at two sites (medial and lateral portions of the ILFP), spaced 0.5 cm apart. The left ILFP was injected in medial and lateral sites with filtered vehicle control solution. A total of 36 animals were divided into three dose groups, outlined in the following table:
(§4) The animals were injected percutaneously with 0.2 mL/injection of test article solution at up to four (4) sites (in the medial, central, and lateral portions of the ILFP) running superiorly to caudally, spaced 0.5 cm apart. The injections were carried out by inserting the needle into the right inguinal region, locating the tip of the needle in the middle of the fat pad between the peritoneal wall and the right leg. In hamsters, the fat could be roughly visualized as a light area beneath the skin. The tip of the needle was at a depth adequate to enter the inguinal fat (as discerned by the thickness of tissue when the needle tip is raised slightly upward while in its final position) while avoiding the leg muscle and the peritoneum. The needle tip was placed approximately 0.5 cm medial to a line drawn from the patella of the knee to the xyphoid appendix of the sternum.

The test system of data set [1] is inguinal-lateral fat pad (ILFP). The data set can be described thus: Effect of polidocanol on the inguinal-lateral fat pad (ILFP) of hamsters: fat weight analysis. It is filed as in vivo, LVG Syrian Golden Hamsters.
Source text: Concentration of polidocanol solutions: 0.5%, 1.25% and 2%; Deoxycholate dose concentration: 1.0%
Species: LVG Syrian Golden Hamsters, retired breeders
Body weight: 165-187 grams (on first day of treatment period); Sex: Male; Vendor: Charles River; Diet: Standard lab chow; Randomization: Animals were grouped so that the mean body weights are approximately equal among the treatment subgroups
as §1, §2, §3
Harvesting: On day 28 (injections at Day 0) and 56 (injections at Day 0 and Day 28), the animals were sacrificed and the ILFPs excised and weighed (see “INGUINAL/LATERAL FAT PAD HARVESTING PROCEDURE,” below). Medial and lateral portions of each ILFP were weighed together. After weighing, each portion was frozen separately on dry ice and stored frozen for histological analysis.
Fat weight analysis: Results were expressed primarily as the mean difference between the right and left ILFPs in grams (A R-L) and as the percent difference (A R-L %). Statistical analysis was performed.
as §4
With the animal lying ventral side up, skin was cut along abdominal midline from the umbilicus to a point caudal to the penis near the bottom of the scrotum. The skin was cut from the penile area in a posterior and lateral direction toward the posterior of the hindlimb. […] An elipse was harvested of skin overlying the region of the ILFP, and placed in formalin for storage and. […]

The subject of another data set is adipose tissue. The data set can be described thus: Histological analysis of treated adipose tissue (H&E). The class given is in vivo, LVG Syrian Golden Hamsters. Particulars: H&E stained sections. Here is the method:
Histological analysis: The right (polidocanol treated) medial injection sites of all six subjects, and one left (saline treated) site from each treatment group (animals #3 and #5), were analyzed histologically to determine evidence of necrosis within the adipose tissue. The selected samples were sectioned at a thickness of 20 microns taken at intervals of 0.5 mm through the tissue. The sections were mounted and stained with H&E and examined microscopically for evidence of necrosis or inflammation. Representative images of each tissue were recorded with a Carl Zeiss color camera.
In addition, there is a lymphomononuclear inflammatory infiltrate with macrophage phagocytosis of lipid cell debris.

For the compound `CC(O)CO` (centres unmarked) [propylene glycol, propane-1,2-diol], the “irritation when injected with polidocanol” value with fat tissue is on record as “non-irritating”. The “patchy and incomplete fat tissue necrosis” value in the data set on fat tissue (relative to the absence of co-solvent) was “reduced amount of patchy and incomplete fat tissue necrosis”.
deoxycholate: the “animals that developed severe skin necrosis” value with skin tissue (1% deoxycholate (3 of 5 animals)) stood at 60%. Besides, the “skin necrosis side effect, number of animals” value with skin tissue (Deoxycholate 1%, Group 4 (FIG. 8C)) is recorded as 3 of 5.
Turning to polidocanol, in data set [1] (FIG. 5A-5B), the “visible change in inguinal fat pad fullness / inguinal crease (body contour)” value was “externally visible reduction in inguinal fat pad fullness”. In addition, the “reductions in inguinal fat pad mass” value was found to be 15% in data set [1] (polidocanol 0.5%, day 28 after a single treatment, formulated with propylene glycol) and 15% in data set [1] (polidocanol 1.25%, day 28 after a single treatment, formulated with propylene glycol). In data set [1] (polidocanol 2.0%, day 28 after a single treatment, formulated with propylene glycol), the “fat pad mass reductions” value worked out at 10%. For the same compound, the “reductions in fat pad mass relative to deoxycholate” value in data set [1] (same optimized dosing frequency, volume, and injection spacing (FIG. 3)) was “at least equivalent to deoxycholate”. For the same compound, the “skin necrosis (proportion of animals)” value in the data set on skin tissue (2% polidocanol) came to 33%. For the same compound, in the data set on skin tissue (FIG. 6), the “selectivity for fat tissue relative to skin tissue” value is “selectively destroys fat tissue relative to skin tissue”. For the same compound, the “skin necrosis side effect, number of animals” value in the data set with skin tissue (Polidocanol 1.25%, Group 2A, moderate skin necrosis (FIG. 8A)) is listed as 1 of 9; with skin tissue (Polidocanol 2%, Group 3B, moderate skin necrosis (FIG. 8B)), 2 animals. Moreover, the “side effects such as skin necrosis, inflammation, large subcutaneous fat droplets” value in the data set on skin tissue (polidocanol concentration greater than about 1.25%) is “higher proportion of side effects”. Further, the “animals with mild skin breakdown” value in the data set on skin tissue (polidocanol injection at 0.5% (1 of 9 animals)) and with skin tissue (polidocanol injection at 1.25% (1 of 9 animals)) was 11% in each case. The “histopathology of treated adipose tissue” value with adipose tissue was “dose dependent changes of fat cell necrosis and apoptosis”.
